Data set [1] is classed as physicochemical. To be noted: warming to room temperature and shaking. The text has this: The salts of the present invention allow one to prepare solutions of m-AMSA without the aid of dimethylacetamide. Depending upon the salt, concentration and temperature,standing may result in certain of the solutions of salts forming gels. However, a salt need only remain in solution for a period long enough for it to be administered to a patient.
Stability of Preferred --m-AMSA Salts

A further data set has as its system mice. Conditions: studies using mice; cited from earlier work.

Read-outs that look alike come from different tables or passages of the source.

Turning to `COc1cc(NS(C)(=O)=O)ccc1Nc1c2ccccc2nc2ccccc12` [gluconate, 4'-(9-acridinylamino)methanesulfon-m-anisidide D-gluconate], the “return of gelled solution to fluid state” value in data set [1] (10 mg/ml after storing at 5 °C) is listed as “could not be achieved”; in data set [1] (lower concentrations gelled at 5 °C), “could be returned to a fluid state”.

For `COc1cc(NS(C)(=O)=O)ccc1Nc1c2ccccc2nc2ccccc12` [m-AMSA, 4'-(9-acridinylamino)methanesulfon-m-anisidide], in the data set with mice, the “activity in treating mammals” value was “high degree of activity”.

The record behind these values is patent US4704397A, “Pharmaceutical salts of 4-(9-acridinyl-amino) methanesulfon-m-anisidide” (Warner-Lambert Company, priority 1981, dated 1987).
